Patent publication US10168342B2, “Lipid probes and uses thereof” (THE SCRIPPS RESEARCH INSTITUTE, priority 2015, dated 2019)

Experiments:
[1] = biological target: T1, AEA-DA-modified peptides in Neuro2a cells (Mus musculus, UniProt Q02819); test: isoTOP-ABPP mapping of AEA-DA-modified peptides in Neuro2a cells; type: cell-based; conditions: for Times observed: probe 100 μM, 12 replicates
T1 construct: endogenous in cells; host or cells: Neuro2a
T1 sequence (Q02819 26-459): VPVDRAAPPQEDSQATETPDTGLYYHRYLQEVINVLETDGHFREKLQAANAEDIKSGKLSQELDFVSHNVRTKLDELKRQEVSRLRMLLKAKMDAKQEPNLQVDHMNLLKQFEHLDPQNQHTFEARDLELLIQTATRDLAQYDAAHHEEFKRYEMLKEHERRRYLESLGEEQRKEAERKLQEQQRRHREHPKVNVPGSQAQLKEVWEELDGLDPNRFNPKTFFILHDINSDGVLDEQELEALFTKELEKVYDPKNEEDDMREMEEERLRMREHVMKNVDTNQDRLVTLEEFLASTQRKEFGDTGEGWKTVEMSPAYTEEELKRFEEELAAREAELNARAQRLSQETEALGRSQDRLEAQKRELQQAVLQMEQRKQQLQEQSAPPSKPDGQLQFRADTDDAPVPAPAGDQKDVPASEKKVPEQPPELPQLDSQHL
Method: Experiments were performed as described above using the AEA-DA probe (100 μM) in 3.0 mL of DMEM (serum-free) and Neuro2A cells without (twelve replicates; ten biological; two technical). For the ligand competition study, cells were treated with the AEA-DA probe (50 μM) and DMSO or MJN228 (50 μM) treatment. Cells were harvested and processed as described above. Whole cell lysates (500 μL at 1.5 mg/mL) were processed for MS analysis using the previously described isoTOPABPP protocol (Speers and Cravatt, 2005). In brief, for global mapping of AEA-DA-modified peptides, proteomes were split into two fractions, which were subjected to click chemistry conditions with either light or heavy isotopically labeled TEV-tags. For the […] competition study, proteomes were subjected to click chemistry conditions with either light (DMSO) or heavy (MJN228-treated) TEV-tags. Light and heavy-tagged proteomes in each experiment were then combined, and, following enrichment of probe-labeled targets using streptavidin beads, proteins were digested on-bead with trypsin and remaining immobilized peptides released with a subsequent TEV protease digestion. The resulting probe-modified peptides were collected for MS analysis, which was performed as described above with differences in the salt bumps applied in the chromatographic gradients which were 0%, 30%, 60%, 90% and 100% NH4OAc (500 mM). The protein identification searches of the MS data were performed using the same software packages described above with the following changes applied to identify the peptides modified with AEA-DA and the cleaved TEV tag. All amino acids were considered as possible residues for modification. To facilitate the computational searches, sets of up to 3 amino acids were searched using ProLuCID and filtered with DTASelect as described above. The mass of the modification used to search for probe-modified peptides was +727.4745 m/z for the probe plus the light TEV-tag and +733.4831 m/z for the heavy counterpart. […] For global mapping experiments, AEA-DA-modified peptides were expected to show a ratio of “heavy” and “light” signals of ˜1.0 (0.5<ratio<2.0) and were required to have been detected in at least two of the twelve replicate experiments.
In some embodiments, the ligands are tested for their interaction to NUCB1 in cells. […] MJN228 inhibited lipid probe binding to NUCB1 at concentrations as low as 10 μM, with near-maximal inhibition observed at ˜25 μM (FIG. 16A). […] The site of arachidonoyl probe (and MJN228) binding to NUCB1 was mapped in cells, which was accomplished by treating Neuro2A cells with the AEA-DA probe (50 μM) in the presence of DMSO or MJN228 (50 μM), followed by UV irradiation, CuAAC conjugation of AEA-DA-labeled proteins to isotopically light (DMSO-treated cells) and heavy (MJN228-treated cells) azide-biotin tags featuring a TEV protease-cleavable linker, and LCMS/MS analysis using a previously described platform, termed isoTOP-ABPP, for mapping probe-modified peptides in proteomes (Speers and Cravatt, 2005). A AEA-DA labeled peptide was identified for NUCB1 (aa 53-68) in DMSO-treated cells and the signals for this peptide were substantially (>5-fold) reduced in MJN228-treated cells (FIG. 15C). This AEA-DA labeling site was confirmed using recombinant, purified hNUCB1 and tandem MS analysis which narrowed down the site of probe modification to His67 (FIGS. 16B and 16C).

humanized rat FAAH = biological target: T2, humanized rat FAAH (Rattus norvegicus, UniProt P97612, A377T/F194Y/I491V/L192F/S435N/V495M); test: FAAH activity by AEA hydrolysis, purified enzyme; type: biochemical; conditions: for inhibition of FAAH activity (AEA hydrolysis): 50 or 100 μM; for IC50: read-out: IC50 against purified recombinant FAAH
T2 sequence (P97612 30-579 L192F/F194Y/A377T/S435N/I491V/V495M limits assumed): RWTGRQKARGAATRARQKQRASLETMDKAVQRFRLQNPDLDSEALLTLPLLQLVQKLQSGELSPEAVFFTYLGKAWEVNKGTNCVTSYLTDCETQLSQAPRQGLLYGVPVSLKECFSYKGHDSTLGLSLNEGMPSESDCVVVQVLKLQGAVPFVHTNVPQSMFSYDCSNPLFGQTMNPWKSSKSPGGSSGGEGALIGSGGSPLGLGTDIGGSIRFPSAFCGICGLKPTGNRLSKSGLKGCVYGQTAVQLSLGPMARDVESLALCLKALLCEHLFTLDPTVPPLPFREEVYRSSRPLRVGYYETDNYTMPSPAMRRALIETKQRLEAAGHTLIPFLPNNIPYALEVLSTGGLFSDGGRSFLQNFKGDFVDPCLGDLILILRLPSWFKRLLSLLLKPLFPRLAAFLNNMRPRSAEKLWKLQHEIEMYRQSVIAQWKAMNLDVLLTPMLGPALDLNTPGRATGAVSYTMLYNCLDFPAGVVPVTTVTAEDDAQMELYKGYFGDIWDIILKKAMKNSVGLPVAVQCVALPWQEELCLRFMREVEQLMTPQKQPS
Method: FAAH activity was measured by AEA hydrolysis: The membrane fraction of Neuro2a lysates (200 μL, 2.0 mg/mL) was incubated with DMSO or the test compound (1.0-250 μM) at 37° C. After 15 min, AEA-d8 (25 μM) was added and the samples were incubated for an additional 30 min and then quenched by the addition of two volumes of CHCl3:MeOH (2:1) containing pentadecanoic acid (PDA) (1.0 nmol) as an internal standard. After centrifuging (2,000×g, 5 min, 4° C.) to separate the organic and aqueous layers, the lower organic layer was transferred to a clean vial and analyzed by LC/MS as previously described. (Long et al., 2009) Pure humanized rat FAAH (Mileni et al., 2008) (5.0 ng/μL) was assayed in the same manner. Product levels were quantified by determining peak areas in relation to PDA.

| Structure (SMILES) | Times observed ([1]; AEA-DA-modified peptide NUCB1 Q02819 53-69, SEQ ID NO 71) | Times observed ([1]; AEA-DA-modified peptide NUCB1 Q02819 246-275, SEQ ID NO 70) | inhibition of FAAH activity (AEA hydrolysis) (humanized rat FAAH) | IC50 (humanized rat FAAH) [µM] | reduction of signals of AEA-DA labeled NUCB1 peptide (aa 53-68) ([1]; Neuro2A cells, AEA-DA 50 μM, MJN228 50 μM) [fold] |
| --- | --- | --- | --- | --- | --- |
| C#CCCCC1(CC/C=C\C/C=C\C/C=C\CCCC(=O)NCCO)N=N1 [AEA-DA, (5Z,8Z,11Z)-N-(2-hydroxyethyl)-14-(3-(pent-4-yn-1-yl)-3H-diazirin-3-yl)tetradeca-5,8,11-trienamide] | 11 | 4 |  |  |  |
| CN1CCN(C(=O)c2c(-c3ccccc3)c3cc([N+](=O)[O-])ccc3n2C)CC1 [KML110, (1-Methyl-5-nitro-3-phenyl-1H-indol-2-yl)(4-methylpiperazin-1-yl)methanone] |  |  | do not substantially inhibit | > 100 |  |
| CN1CCN(C(=O)c2[nH]c3ccc([N+](=O)[O-])cc3c2-c2ccccc2)CC1 [MJN228, (4-Methylpiperazin-1-yl)(5-nitro-3-phenyl-1H-indol-2-yl)methanone] |  |  | do not substantially inhibit | > 100 | > 5 |
